Data set [1] is described as follows: Solubility and solution stability of C-005 and its salts. In kind it is physicochemical.
The subject of data set [2] is activated form and resistant mutant form of EGFR. To be noted: cited from earlier work.
Data set [3] addresses WT EGFR (Homo sapiens, UniProt P00533). Particulars: cited from earlier work.

Chain of WT EGFR (P00533 25-1210): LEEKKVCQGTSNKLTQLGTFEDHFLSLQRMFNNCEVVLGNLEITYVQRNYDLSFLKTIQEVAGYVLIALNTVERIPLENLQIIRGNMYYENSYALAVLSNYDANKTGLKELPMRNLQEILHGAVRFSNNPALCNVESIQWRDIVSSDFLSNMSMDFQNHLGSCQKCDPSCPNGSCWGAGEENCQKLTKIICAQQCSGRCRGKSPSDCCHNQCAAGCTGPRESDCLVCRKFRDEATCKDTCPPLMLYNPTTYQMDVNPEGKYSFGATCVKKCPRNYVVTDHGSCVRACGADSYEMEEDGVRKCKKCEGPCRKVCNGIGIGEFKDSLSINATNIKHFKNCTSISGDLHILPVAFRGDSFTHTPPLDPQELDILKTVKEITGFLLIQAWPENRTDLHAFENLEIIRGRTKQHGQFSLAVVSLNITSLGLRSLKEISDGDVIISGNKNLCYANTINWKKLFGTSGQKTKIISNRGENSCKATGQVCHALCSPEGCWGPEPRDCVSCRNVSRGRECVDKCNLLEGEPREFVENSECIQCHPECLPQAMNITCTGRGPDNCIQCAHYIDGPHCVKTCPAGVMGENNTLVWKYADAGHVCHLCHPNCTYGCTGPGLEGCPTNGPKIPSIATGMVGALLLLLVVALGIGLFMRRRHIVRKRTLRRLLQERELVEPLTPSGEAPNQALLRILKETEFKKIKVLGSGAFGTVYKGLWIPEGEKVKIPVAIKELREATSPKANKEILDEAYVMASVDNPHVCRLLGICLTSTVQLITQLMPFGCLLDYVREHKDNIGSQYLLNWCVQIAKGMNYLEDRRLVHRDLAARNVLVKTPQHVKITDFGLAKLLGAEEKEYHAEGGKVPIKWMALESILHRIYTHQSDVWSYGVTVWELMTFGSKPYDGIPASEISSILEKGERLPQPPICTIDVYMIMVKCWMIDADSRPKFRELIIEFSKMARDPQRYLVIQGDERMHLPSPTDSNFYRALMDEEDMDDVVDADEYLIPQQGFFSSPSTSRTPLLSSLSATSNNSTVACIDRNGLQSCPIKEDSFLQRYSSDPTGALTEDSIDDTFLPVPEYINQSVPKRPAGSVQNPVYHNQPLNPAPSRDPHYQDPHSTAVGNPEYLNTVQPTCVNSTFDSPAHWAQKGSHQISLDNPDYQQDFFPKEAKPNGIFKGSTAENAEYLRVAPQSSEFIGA

As to `C=CC(=O)Nc1cc(Nc2nccc(-c3cn(C)c4cccnc34)n2)c(OC)cc1N(C)CCN(C)C.O=C(O)CC(O)(CC(=O)O)C(=O)O` [C-005 citrate, N-(2-((2-(dimethylamino)ethyl)(methyl)amino)-4-methoxy-5-((4-(1-methyl-1H-pyrrolo[3,2-b]pyridin-3-yl)pyrimidin-2-yl)amino)phenyl)acrylamide citrate], the “Time period for which the solution is stable and does not precipitate” value in data set [1] (solution of the citrate, once formed) is reported as “at least 24 hours”. For the same compound, in data set [1] (under the pH conditions in intestine), the “Solubility compared with C-005 in the free-base form” value is on record as “significantly higher”.
As for `C=CC(=O)Nc1cc(Nc2nccc(-c3cn(C)c4cccnc34)n2)c(OC)cc1N(C)CCN(C)C` [C-005, N-(2-((2-(dimethylamino)ethyl)(methyl)amino)-4-methoxy-5-((4-(1-methyl-1H-pyrrolo[3,2-b]pyridin-3-yl)pyrimidin-2-yl)amino)phenyl)acrylamide], in data set [1], the “pH dependence of solubility (and permeability)” value is “significant pH-dependent solubility and permeability”. Further, the “Solubility in simulated gastric fluid compared to the solubility in aqueous solution” value in data set [1] (simulated gastric fluid (pH 1.2) vs aqueous solution (pH 7)) is recorded as “approximately 40 times”. Moreover, the “Inhibition of activated form and resistant mutant form of EGFR” value in data set [2] was “inhibit both activated form and resistant mutant form of EGFR”. Also, the “Inhibitory activity against WT EGFR” value in data set [3] is “relatively low inhibitory activity”.

The values above are taken from patent publication US11786527B2, “Pharmaceutical composition and preparation method therefor and uses thereof” (WUXI SHUANGLIANG BIOTECHNOLOGY CO., LTD., priority 2018, dated 2023).
